“Also recorded” adds a separate entry of the source. Where two headings read alike, the source gives them in different places.
Tests used:
[1] = test system: Aedes aegypti mosquitoes, insecticide-susceptible Orlando strain; format: in vivo; conditions: for 1 h % Repellency, 100 μg/cm^2: screened at 100 μg/cm^2, strain not given
Experimental: The tubes as shown were held horizontally on the bench.
For assessing behavioral repellency (FIG. 1), Aedes aegypti mosquitoes were used from the insecticide-susceptible Orlando strain and the pyrethroid-resistant Puerto Rico strain. Sixteen female mosquitoes were transferred to a glass tube (12.5 cm long, 2.5 cm outer diameter) with the ends covered with netting. Each compound was dissolved in 1 mL of acetone and serial dilutions ranging from 30-0.01 μg/ml were made. Circular filter papers (5 cm^2) were saturated with 50 μL of each concentration and allowed 10 min for solvent evaporation. The filter papers were then placed in clear conical polypropylene caps and fixed to the end of the glass tubes. The netting prevented mosquito contact with the filter paper. The tubes were then aligned with a mark denoting the midline and the proportion of mosquitoes on the chemically treated side was scored for up to 60 min. At the end of the test, the tube was placed in a cage and the ability of the mosquitoes to fly out of the tube was assessed for 30 min. […] This post-test evaluated whether any non-responding mosquitoes (not repelled) resulted from intoxication or disorientation from the test chemical. For assessment of lethality, insects were held for 24 hr under constant exposure in glass tubes having treated filter papers.
Compounds were first screened at 100 μg/cm^2 for repellency and 24 h mortality.

[2] = test system: Aedes aegypti mosquitoes, insecticide-susceptible Orlando strain; conditions: for 24 h % Mortality, 100 μg/cm^2: screened at 100 μg/cm^2, strain not given
[3] = test system: Aedes aegypti strain Orlando (sensitive); assay: Topical toxicity (24 hour mortality), Ae. aegypti Orlando; format: in vivo
Experimental: (§1) The Aedes aegypti strains Orlando (sensitive) as well as the Puerto Rico (PR, resistant to permethrin) were used. The Anopheles gambiae (G3 sensitive strain, as well as Akron kdr (Akdr) strain, resistant to pyrethroids were also assessed. The larvae were provided by the USDA, Gainesville Fl, and raised in a pan with tap water maintained at 28° C. Larvae were fed a ground liver and yeast mixture, and pupae were placed in emergence cages. Adults were held at 28° C. and provided with cotton balls soaked in 10% sugar water for rearing and for all bioassays.
(§2) Female adults from 3 to 6 days were used for the experiments. The drug was dissolved in ethanol and then applied with a micro-applicator on the thorax, between the legs: 200 nL of drug per female mosquito, with different concentrations of the drug; 10 mosquitos were treated together per concentration per replicate, and put together in a small container with free access to sweet water. Mortality, i.e. no visible movement, was assessed 24 hours after treatment. Every compound was assessed on at least 3 different cohorts of mosquitoes, and the LD50 values and slopes were determined with Probit analysis, corrected with Abbott's formula.

[4] = test system: Anopheles gambiae G3 sensitive strain; assay: Topical toxicity (24 hour mortality), An. gambiae G3; format: in vivo
Experimental: as §1, §2

[5] = test system: Anopheles gambiae Akron kdr (Akdr) strain, resistant to pyrethroids; assay: Topical toxicity (24 hour mortality), An. gambiae Akdr; format: in vivo; conditions: for An. gambiae RR (resistance ratio): 24 h LD50 resistant strain (AKDR)/24 h LD50 susceptible strain (G3)
Experimental: as §1, §2

[6] = topical application, 24 h mortality, female adults, susceptible Orlando strain
[7] = topical application, 24 h mortality, female adults, susceptible strain G3
[8] = topical application, 24 h mortality, female adults, pyrethroid-resistant Akdr strain

Row | SMILES | Ae. aegypti OR LD50 [3, 6] | An. gambiae G3 LD50 [4, 7] | An. gambiae AKDR LD50 [5, 8] | An. gambiae RR (resistance ratio) [5] | other results
1 | O=C(Nc1cc(F)c(F)c(F)c1)C(F)(F)C(F)(F)OC(F)(F)F [compound 51] | – | – | – | – | 1h EC50 (μg/cm^2) ([1]; Table 3A): 3.09 μg/cm^2; 1h % repellency ([1]; Table 3A, Screened at μg/cm^2): 100%; 24 h LC50, μg/cm^2 ([2]; Table 3A): 14.94 μg/cm^2; 24h % mortality ([2]; Table 3A, Screened at μg/cm^2): 100%
2 | CCC(=O)Nc1c(Cl)cncc1Cl [GMR131] | – | – | – | – | 1 h % Repellency, 100 μg/cm^2 ([1]; 1 h): −4%; 24 h % Mortality, 100 μg/cm^2 ([2]; 24 h): 6%
3 | O/N=C(\Nc1cc(Cl)nc(C(F)(F)F)c1)C(F)(F)C(F)(F)C(F)(F)F [GMR105] | – | – | – | – | 1 h % Repellency, 100 μg/cm^2 ([1]; 1 h): 24%; 24 h % Mortality, 100 μg/cm^2 ([2]; 24 h): 21%
4 | CCCCCCCCCC(=O)Nc1ccccc1OC(F)(F)F [GMR184] | – | – | – | – | 1 h % Repellency, 100 μg/cm^2 ([1]; 1 h): −8%; 24 h % Mortality, 100 μg/cm^2 ([2]; 24 h): 2%
5 | CC(C)(F)C(=O)Nc1ccccc1C(F)(F)F [MTFI-5-5A] | – | – | – | – | 1 h % Repellency, 100 μg/cm^2 ([1]; 1 h): 82%; vapor repellency / mortality, statement in words (Example 8) ([1]; structure-activity analysis of Table 2): reduced repellency; also recorded: little to no activity; 24 h % Mortality, 100 μg/cm^2 ([2]; 24 h): 3%
6 | N#CC(F)(F)C(=O)Nc1cc(Cl)nc(Cl)c1 [GMR101] | 1841 ng/mg | >100 ng/mg | >100 ng/mg | – | –
7 | O=C(CCC1CCCCC1)Nc1cc(C(F)(F)F)cc(C(F)(F)F)c1 [MTFI-3-1D] | – | – | – | – | 1 h % Repellency, 100 μg/cm^2 ([1]; 1 h): 6%; 24 h % Mortality, 100 μg/cm^2 ([2]; 24 h): 7%
8 | O=C(Nc1ccc(F)cc1)C(F)(F)C(F)(F)F [GMR189] | – | – | – | – | 1 h Repellency EC50, μg/cm^2 ([1]; 1 h, (OR)): 4.5 μg/cm^2; 1 h % Repellency, 100 μg/cm^2 ([1]; 1 h): 42%; 24 h LC50, μg/cm^2 ([2]; 24 h, LC50 (OR)): 35.3 μg/cm^2; 24 h % Mortality, 100 μg/cm^2 ([2]; 24 h): 94%
9 | O=C(Nc1cc(Cl)nc(Cl)c1)C(F)(F)C(F)(F)OC(F)(F)F [GMR084] | 17.8 ng/mg | 6.04 ng/mg | 11.00 ng/mg | 1.8 | –
10 | O=C(Nc1cc(Cl)nc(Cl)c1)C(F)(F)C(F)(F)C(F)(F)C(F)(F)C(F)(F)F [GMR051] | 23.4 ng/mg | 5.2 ng/mg | 3.7 ng/mg | 0.7 | –
11 | CC(C)CC(=O)Nc1cc(F)c(F)c(F)c1 [GMR141] | – | – | – | – | 1 h % Repellency, 100 μg/cm^2 ([1]; 1 h): 16%; 24 h % Mortality, 100 μg/cm^2 ([2]; 24 h): 19%
12 | Cc1cc(NC(=O)C(F)F)cc(C)n1 [GMR047] | >3000 ng/mg | >100 ng/mg | >100 ng/mg | – | –
13 | O=C(Nc1cc(Cl)nc(C(F)(F)F)c1)C(F)(F)C(F)(F)C(F)(F)F [GMR037, N-(2-chloro-6-(trifluoromethyl)pyridin-4-yl)-2,2,3,3,4,4,4-heptafluorobutanamide] | 17 ng/mg | 6.5 ng/mg | 5.3 ng/mg | 0.8 | –
14 | Cc1cc(NC(=O)C(F)(F)F)cc(C)n1 [GMR048] | >1500 ng/mg | >100 ng/mg | >100 ng/mg | – | –
15 | O=C(Nc1cc(F)c(F)c(F)c1F)C(F)(F)F [MTFI-5-4B] | – | – | – | – | 1 h % Repellency, 100 μg/cm^2 ([1]; 1 h): 82%; 24 h % Mortality, 100 μg/cm^2 ([2]; 24 h): 0%
16 | O=C(Nc1cc(Br)nc(Br)c1)C(F)(F)C(F)(F)F [GMR041] | 50 ng/mg | ~100 ng/mg | ~100 ng/mg | – | –
17 | O=C(Nc1cc(Br)nc(Br)c1)C(F)F [GMR039] | 2253 ng/mg | 20.8 ng/mg | 23.8 ng/mg | 1.1 | –

Row | SMILES | Ae. aegypti OR LD50 [3, 6] | An. gambiae G3 LD50 [4, 7] | An. gambiae AKDR LD50 [5, 8] | An. gambiae RR (resistance ratio) [5] | other results
18 | O=C(Nc1cc(Cl)nc(C(F)(F)F)c1)C(F)(F)C(F)(F)C(F)(F)F [compound 56] | – | – | – | – | Ae. aegypti OR LD50 ([3]; Table 5, topical, 24 h): 17.30 ng/mg; An. gambiae G3 LD50 ([4]; Table 5, topical, 24 h): 6.50 ng/mg; An. gambiae AKDR LD50 ([5]; Table 5, topical, 24 h): 5.30 ng/mg
19 | CC(C)(C)OC(=O)N(C(=O)C(F)(F)C(F)(F)C(F)(F)F)c1cc(Cl)nc(Cl)c1 [GMR087] | 54.6 ng/mg | 23.00 ng/mg | 20.50 ng/mg | 0.9 | –
20 | O=C(Nc1cc(F)nc(F)c1)C(F)(F)C(F)(F)C(F)(F)F [GMR046] | 300 ng/mg | >100 ng/mg | >100 ng/mg | – | –
21 | O=C(Nc1cc(Cl)nc(C(F)(F)F)c1)C(F)(F)F [GMR035] | 106 ng/mg | 30.5 ng/mg | 52.1 ng/mg | 1.7 | –
22 | O=C(Nc1cc(F)cc(F)c1)C(F)(F)C(F)(F)F [GMR188] | – | – | – | – | 24 h LC50, μg/cm^2 ([2]; 24 h, LC50 (OR)): 4.9 μg/cm^2; 24 h % Mortality, 100 μg/cm^2 ([2]; 24 h): 81%
23 | Cc1cc(NC(=O)C(F)(F)C(F)(F)C(F)(F)F)cc(C)n1 [GMR050] | >3000 ng/mg | >100 ng/mg | >100 ng/mg | – | –
24 | O=C(Nc1cc(Br)nc(Br)c1)C(F)(F)C(F)(F)C(F)(F)F [GMR042] | 24 ng/mg | 11.4 ng/mg | 4.7 ng/mg | 0.4 | –
25 | O=C(Nc1cc(Cl)nc(C(F)(F)F)c1)C(F)(F)C(F)(F)F [GMR036] | 25 ng/mg | 13.5 ng/mg | 10.0 ng/mg | 0.7 | –
26 | Cc1cc(NC(=O)C(F)(F)C(F)(F)F)cc(C)n1 [GMR049] | >3000 ng/mg | >100 ng/mg | >100 ng/mg | – | –
27 | O=C(Nc1cc(F)nc(F)c1)C(F)(F)F [GMR044] | 1996 ng/mg | >100 ng/mg | >100 ng/mg | – | –
28 | O=C(Nc1cc(F)nc(F)c1)C(F)(F)C(F)(F)F [GMR045] | 302 ng/mg | >100 ng/mg | >100 ng/mg | – | –
29 | O=C(Nc1ccccc1OC(F)(F)F)C(F)(F)C(F)(F)C(F)(F)F [GMR129] | >6000 ng/mg | >1000 ng/mg | ~1000 ng/mg | – | 1 h % Repellency, 100 μg/cm^2 ([1]; 1 h): 34%
30 | O=C(CCCC(F)(F)F)Nc1cc(Cl)nc(Cl)c1 [GMR052] | 2743 ng/mg | >100 ng/mg | >100 ng/mg | – | –
31 | O=C(Nc1cc(F)nc(F)c1)C(F)(F)C(F)(F)C(F)(F)C(F)(F)C(F)(F)F [GMR072] | 114 ng/mg | 11.00 ng/mg | 17 ng/mg | 1.5 | –
32 | O=C(Nc1cc(Cl)nc(C(F)(F)F)c1)C(F)F [GMR034] | 1454 ng/mg | 20.8 ng/mg | 23.8 ng/mg | 1.1 | –
33 | O=C(Nc1cc(F)nc(F)c1)C(F)F [GMR043] | 2480 ng/mg | >100 ng/mg | >100 ng/mg | – | –

From patent US20230337677A1, “ARYL AND PYRIDYL AMIDE PESTICIDES AND COMPOSITIONS THEREOF” (University of Florida Research Foundation, Incorporated, priority 2019, published 2023)
